Data: patent publication US20060025390A1, “Treatment of hormone allergy and related symptoms and disorders” (priority 2004, published 2006)

Assays:
[1] = system: serum IgG anti-estrogen antibodies; assay: ELISA binding of IgG estrogen antibodies to different hormones in solid phase; parameters: species or system human; conditions: for IgG anti-estrogen binding: relative to estrogen, over three sera; for IgG binding (optical density): hormone in solid phase, 405 nm; for IgG % reaction: relative to estrogen = 100
Protocol: (§1) The ELISA inhibition method was used to determine specificity and cross-reactivity between different hormones and to ensure the degree of human IgG, IgM and IgE estrogen or progesterone binding to estrogen or progesterone in solid phase. […] 100 μl of sera from three different patients with high IgG, IgM or IgE antibodies against 17-α-hydroxyprogesterone was added to all wells. After shaking and incubation for 1 hr at room temperature, addition of enzyme labeled anti-human IgG, IgM or IgE, repeat of incubation, washing, and addition of substrate, color development was measured at 405 nm. Results were calculated as percentage of anti-17-α-hydroxyprogesterone binding to 17-α-hydroxyprogesterone and other hormones. Also, anti-estrogen binding to estrogen and other hormones in solid phase by progesterone in liquid phase was performed and calculated in a similar manner.
(§2) Human sera containing 17-α-hydroxyprogesterone IgG-, IgM- and IgE-binding antibodies were reacted against progesterone, estrogen, hydrocortisone and cholesterol. In comparison to 100% binding of anti-17-α-hydroxyprogesterone-binding to 17-α-hydroxyprogesterone, the IgG anti-17-α-hydroxyprogesterone-binding to progesterone, estrogen, hydrocortisone and cholesterol was 69-77%, 25-30%, 39-53%, and less than 10% respectively (Table 4). The % binding of serum IgM and IgE anti-17-α-hydroxyprogesterone to 17-1-hydroxyprogesterone, progesterone, estrogen, hydrocortisone and cholesterol was similar to the binding of IgG. This binding of anti-17-α-hydroxyprogesterone to progesterone was the highest, followed by hydrocortisone, then estrogen, to almost no binding with cholesterol. Similar to this, human sera with IgG, IgM and IgE binding antibodies against estrogen were reacted with progesterone, 17-α-hydroxyprogesterone, hydrocortisone and cholesterol, in the presence of estrogen.

[2] = system: serum IgE anti-17-α-hydroxyprogesterone antibodies; assay: ELISA binding of IgE 17-α-hydroxyprogesterone antibodies to different hormones in solid phase; parameters: species or system human; conditions: for IgE binding (optical density): hormone in solid phase, 405 nm; for IgE % reaction: relative to 17-α-hydroxyprogesterone = 100
Protocol: as §1, §2

[3] = system: serum IgM anti-estrogen antibodies; assay: ELISA binding of IgM estrogen antibodies to different hormones in solid phase; parameters: species or system human; conditions: for IgM anti-estrogen binding: relative to estrogen, over three sera; for IgM binding (optical density): hormone in solid phase, 405 nm; for IgM % reaction: relative to estrogen = 100
Protocol: as §1, §2

[4] = system: serum IgE anti-estrogen antibodies; assay: ELISA binding of IgE estrogen antibodies to different hormones in solid phase; parameters: species or system human; conditions: for IgE anti-estrogen binding: relative to estrogen, over three sera; for IgE binding (optical density): hormone in solid phase, 405 nm; for IgE % reaction: relative to estrogen = 100
Protocol: as §1, §2

[5] = system: serum IgM anti-17-α-hydroxyprogesterone antibodies; assay: ELISA binding of IgM 17-α-hydroxyprogesterone antibodies to different hormones in solid phase; parameters: species or system human; conditions: for IgM binding (optical density): hormone in solid phase, 405 nm; for IgM % reaction: relative to 17-α-hydroxyprogesterone = 100
Protocol: as §1, §2

[6] = system: serum IgG anti-17-α-hydroxyprogesterone antibodies; assay: ELISA binding of IgG 17-α-hydroxyprogesterone antibodies to different hormones in solid phase; parameters: species or system human; conditions: for IgG anti-17-α-hydroxyprogesterone binding: in comparison to 100% binding to 17-α-hydroxyprogesterone, over three sera; for IgG binding (optical density): hormone in solid phase, 405 nm; for IgG % reaction: relative to 17-α-hydroxyprogesterone = 100
Protocol: as §1, §2

[7] = system: serum IgE anti-estrogen antibodies; assay: Competition ELISA: absorption of serum IgE anti-estrogen with specific and non-specific antigens; type: binding, human; conditions: for inhibition of IgE anti-estrogen binding: antigen in liquid phase, over the three sera; for IgE level after absorption: absorption with 250 μg/mL, optical density 405 nm
Protocol: (§3) For this, microtiter plates were coated with hormones and blocked by the addition of 2% BSA in PBST. 100 μl of serum diluent buffer was added to all wells. […] After 60 minutes incubation 100 μl serum anti-estrogen or anti-progesterone was added to all wells. […] Results were calculated as percentage of inhibition in antigen-antibody reaction.
(§4) To examine whether antibodies to estrogen or progesterone are specific or cross-reactive, we performed competition ELISA by adding specific and non-specific antigens in liquid phase and examined prevention of serum antibody binding to the antigen in solid phase. […] For IgE anti-estrogen, this inhibition by estrogen-BSA was between 54-62%, and with progesterone-BSA, from 37-43%. […] This cross-reaction between estrogen and progesterone antibodies may be due to structural similarities between these two hormones.

[8] = system: serum IgG anti-estrogen antibodies; assay: Competition ELISA: absorption of serum IgG anti-estrogen with specific and non-specific antigens; type: binding, human; conditions: for inhibition of anti-estrogen binding to estrogen (IgG): antigen in liquid phase, over the three sera; for IgG level after absorption: absorption with 250 μg/mL, optical density 405 nm
Protocol: as §3, §4

[9] = serum sample 1, before absorption 2.15
[10] = serum sample 2, before absorption 1.66
[11] = serum sample 3, before absorption 1.34
[12] = serum sample 1, before absorption 1.83
[13] = serum sample 2, before absorption 1.25
[14] = serum sample 3, before absorption 0.76

CC(C)CCC[C@@H](C)[C@H]1CC[C@H]2[C@@H]3CC=C4C[C@@H](O)CC[C@]4(C)[C@H]3CC[C@]12C [C, Cholesterol]
IgG anti-estrogen binding [1]: not significant | IgG binding (optical density) ([1]; sample 1): 0.12 | IgG binding (optical density) ([1]; sample 2): 0.19 | IgG binding (optical density) ([1]; sample 3): 0.15 | IgE binding (optical density) ([2]; sample 1): 0.2 | IgE binding (optical density) ([2]; sample 2): 0.23 | IgE % reaction ([2]; sample 2): −10% | IgE binding (optical density) ([2]; sample 3): 0.18 | IgM anti-estrogen binding [3]: not significant | IgM binding (optical density) ([3]; sample 1): 0.13 | IgM binding (optical density) ([3]; sample 2): 0.25 | IgM % reaction ([3]; sample 2): −12% | IgM binding (optical density) ([3]; sample 3): 0.24 | IgM % reaction ([3]; sample 3): −18% | IgE anti-estrogen binding [4]: not significant | IgE binding (optical density) ([4]; sample 1): 0.15 | IgE binding (optical density) ([4]; sample 2): 0.21 | IgE % reaction ([4]; sample 2): −14% | IgE binding (optical density) ([4]; sample 3): 0.28 | IgE % reaction ([4]; sample 3): −17% | IgM binding (optical density) ([5]; sample 1): 0.18 | IgM binding (optical density) ([5]; sample 2): 0.19 | IgM binding (optical density) ([5]; sample 3): 0.15 | IgG anti-17-α-hydroxyprogesterone binding [6]: less than 10% | IgG binding (optical density) ([6]; sample 1): 0.21 | IgG % reaction ([6]; sample 1): −13% | IgG binding (optical density) ([6]; sample 2): 0.12 | IgG binding (optical density) ([6]; sample 3): 0.17

C[C@]12CCC(=O)C=C1CC[C@@H]1[C@@H]2[C@@H](O)C[C@@]2(C)[C@H]1CC[C@]2(O)C(=O)CO [HC, Hydrocortisone]
IgG anti-estrogen binding [1]: not significant | IgG binding (optical density) ([1]; sample 1): 0.15 | IgG binding (optical density) ([1]; sample 2): 0.31 | IgG % reaction ([1]; sample 2): −17% | IgG binding (optical density) ([1]; sample 3): 0.18 | IgE binding (optical density) ([2]; sample 1): 0.58 | IgE % reaction ([2]; sample 1): −40% | IgE binding (optical density) ([2]; sample 2): 1.2 | IgE % reaction ([2]; sample 2): −50% | IgE binding (optical density) ([2]; sample 3): 0.68 | IgE % reaction ([2]; sample 3): −39% | IgM anti-estrogen binding [3]: not significant | IgM binding (optical density) ([3]; sample 1): 0.16 | IgM binding (optical density) ([3]; sample 2): 0.44 | IgM % reaction ([3]; sample 2): −21% | IgM binding (optical density) ([3]; sample 3): 0.23 | IgM % reaction ([3]; sample 3): −18% | IgE anti-estrogen binding [4]: not significant | IgE binding (optical density) ([4]; sample 1): 0.17 | IgE binding (optical density) ([4]; sample 2): 0.29 | IgE % reaction ([4]; sample 2): −19% | IgE binding (optical density) ([4]; sample 3): 0.25 | IgE % reaction ([4]; sample 3): −16% | IgM binding (optical density) ([5]; sample 1): 0.47 | IgM % reaction ([5]; sample 1): −36% | IgM binding (optical density) ([5]; sample 2): 0.5 | IgM % reaction ([5]; sample 2): −39% | IgM binding (optical density) ([5]; sample 3): 0.51 | IgM % reaction ([5]; sample 3): −55% | IgG anti-17-α-hydroxyprogesterone binding [6]: 39-53% | IgG binding (optical density) ([6]; sample 1): 0.69 | IgG % reaction ([6]; sample 1): −43% | IgG binding (optical density) ([6]; sample 2): 0.37 | IgG % reaction ([6]; sample 2): −39% | IgG binding (optical density) ([6]; sample 3): 0.36 | IgG % reaction ([6]; sample 3): −53%

CC(=O)[C@@]1(O)CC[C@H]2[C@@H]3CCC4=CC(=O)CC[C@]4(C)[C@H]3CC[C@@]21C [HP, 17-α-hydroxy-progesterone]
IgG binding (optical density) ([1]; sample 1): 0.42 | IgG % reaction ([1]; sample 1): −35% | IgG binding (optical density) ([1]; sample 2): 0.75 | IgG % reaction ([1]; sample 2): −42% | IgG binding (optical density) ([1]; sample 3): 0.52 | IgG % reaction ([1]; sample 3): −57% | IgE binding (optical density) ([2]; sample 1): 1.45 | IgE % reaction ([2]; sample 1): −100% | IgE binding (optical density) ([2]; sample 2): 2.4 | IgE % reaction ([2]; sample 2): −100% | IgE binding (optical density) ([2]; sample 3): 1.1 | IgE % reaction ([2]; sample 3): −100% | IgM binding (optical density) ([3]; sample 1): 0.34 | IgM % reaction ([3]; sample 1): −38% | IgM binding (optical density) ([3]; sample 2): 0.88 | IgM % reaction ([3]; sample 2): −42% | IgM binding (optical density) ([3]; sample 3): 0.59 | IgM % reaction ([3]; sample 3): −45% | IgE binding (optical density) ([4]; sample 1): 0.22 | IgE % reaction ([4]; sample 1): −28% | IgE binding (optical density) ([4]; sample 2): 0.65 | IgE % reaction ([4]; sample 2): −43% | IgE binding (optical density) ([4]; sample 3): 0.73 | IgE % reaction ([4]; sample 3): −46% | IgM binding (optical density) ([5]; sample 1): 1.3 | IgM % reaction ([5]; sample 1): −100% | IgM binding (optical density) ([5]; sample 2): 1.2 | IgM % reaction ([5]; sample 2): −100% | IgM binding (optical density) ([5]; sample 3): 0.92 | IgM % reaction ([5]; sample 3): −100% | IgG anti-17-α-hydroxyprogesterone binding [6]: 100% | IgG binding (optical density) ([6]; sample 1): 1.6 | IgG % reaction ([6]; sample 1): −100% | IgG binding (optical density) ([6]; sample 2): 0.95 | IgG % reaction ([6]; sample 2): −100% | IgG binding (optical density) ([6]; sample 3): 0.68 | IgG % reaction ([6]; sample 3): −100%

bovine serum albumin [BSA]
inhibition of IgE anti-estrogen binding [7]: did not significantly absorb | IgE level after absorption [7, 9]: 2.24 | IgE level after absorption [7, 10]: 1.53 | IgE level after absorption [7, 11]: 1.26 | inhibition of anti-estrogen binding to estrogen (IgG) [8]: did not significantly absorb | IgG level after absorption [8, 12]: 1.79 | IgG level after absorption [8, 13]: 1.13 | IgG level after absorption [8, 14]: 0.81

B1: myelin basic protein (protein, UniProt P02686 1-304, looked up)
Myelin basic protein: MGNHAGKRELNAEKASTNSETNRGESEKKRNLGELSRTTSEDNEVFGEADANQNNGTSSQDTAVTDSKRTADPKNAWQDAHPADPGSRPHLIRLFSRDAPGREDNTFKDRPSESDELQTIQEDSAATSESLDVMASQKRPSQRHGSKYLATASTMDHARHGFLPRHRDTGILDSIGRFFGGDRGAPKRGSGKDSHHPARTAHYGSLPQKSHGRTQDENPVVHFFKNIVTPRTPPPSQGKGRGLSLSRFSWGAEGQRPGFGYGGRASDYKSAHKGFKGVDAQGTLSKIFKLGGRDSRSGSPMARR
inhibition of IgE anti-estrogen binding [7]: did not significantly absorb | IgE level after absorption [7, 9]: 2.05 | IgE level after absorption [7, 10]: 1.73 | IgE level after absorption [7, 11]: 1.11 | inhibition of anti-estrogen binding to estrogen (IgG) [8]: did not significantly absorb | IgG level after absorption [8, 12]: 1.67 | IgG level after absorption [8, 13]: 1.13 | IgG level after absorption [8, 14]: 0.68
